Assay results: patent publication US12215123B2, “Cordycepin-based derivatized compound with anti-tumor effect” (NANJING TECH UNIVERSITY, priority 2022, dated 2025)
Counter-ions that a name gives are not always drawn. Like-named read-outs stand apart in the source and are kept apart here.

Assays:
[1] = test system: small cell lung cancer cell line H446; test: MTT proliferation, small cell lung cancer cell line H446; type: cell-based; conditions: for IC50: read-out: IC50 (μM) of compounds in small cell lung cancer cells, H446
Experimental: (§1) The method for determining inhibitory activities of the compounds on the proliferation of tumor cells by an MTT method is as follows: a bottle of cells in a good state in an exponential growth phase is added with 0.25% trypsin digestive juice, the digestion makes adherent cells fall off, with 2 to 4×10^4 cells/mL, and a cell suspension is prepared. The cell suspension is inoculated on a 96-well plate, with 90 μL/well, and cultured in a constant-temperature CO2 incubator for 24 hours. The prepared compounds are added for testing, with 10 μL/well, and cultured for 72 hours. An MTT reagent is added into a 96-well plate, with 10 μL/well, and reacts in an incubator for 4 hours to absorb a supernatant, and then dimethyl sulfoxide is added, with 100 μL/well. After a crystal is dissolved, an absorbance of each well at a wavelength of 570 nm is measured by an enzyme-linked immunosorbent assay instrument, and a cell inhibition rate is calculated. An S curve is made with a compound concentration and a corresponding inhibition rate. Therefore, IC50 of a corresponding compound is obtained.
(§2) Anti-tumor dose-effect relationship curves of cordycepin and compounds 1, 2, 4, 5, 7, 8, 10, 12, 16, 18, 21, 23, 24, 35 and 38 in small cell lung cancer cell lines H1048, H446 and H69 were analyzed by an MTT experimental method.

[2] = test system: small cell lung cancer cell line H1048; test: MTT proliferation, small cell lung cancer cell line H1048; type: cell-based; conditions: read-out: IC50 (μM) of compounds in small cell lung cancer cells, H1048
Experimental: as §1, §2

[3] = test system: small cell lung cancer cell line H69; test: MTT proliferation, small cell lung cancer cell line H69; type: cell-based; conditions: read-out: IC50 (μM) of compounds in small cell lung cancer cells, H69
Experimental: as §1, §2

[4] = test system: wild-type AB-line zebrafish; conditions: 3 dpf to 5 dpf, 35° C.; survival rate>90% and teratogenicity<20%
Experimental: The zebrafish model is a wild-type AB-line zebrafish from College of Biotechnology and Pharmaceutical Engineering, Nanjing Tech University, and is carried out by a natural mating reproduction method, with 30 zebrafish of 2 dpf in each experimental group. The zebrafish is fed in fish culture water at 28° C. (water quality:200 mg of instant sea salt and CaCO3 are added into 1 L of reverse osmosis water with a conductivity of 480 uS/cm to 510 uS/cm, a pH value of 6.9 to 7.2, and a hardness of 53.7 mg/L to 71.6 mg/L), and the feeding management meets the requirements of international AAALAC certification.
240 3 dpf wild-type AB-line zebrafish were randomly selected in an 8-well plate, with 30 zebrafish in each well, and 3 mL of fish culture water in each well, the cordycepin was diluted according to a maximum lethal dose, dissolved in DMSO, and added into each well according to a concentration gradient (the maximum lethal dose was diluted by 100 times, in which 8 concentration gradient values were taken for the experiment), and meanwhile, a normal control group, a solvent control group G (5% glucose) and a solvent control group D (DMSO) were set. During the experiment, the zebrafish in each group were cultured at 35° C., after the zebrafish were treated to be 5 dpf with a sample to be tested, lethal and developmental malformation conditions of the zebrafish in different doses were investigated respectively, and a maximum tolerance dose (MTD) of the sample to be tested to normal zebrafish was determined under a concentration when survival rate>90% and teratogenicity<20%.

[5] = test system: gastric cancer cell line AGS; test: MTT proliferation, gastric cancer cell line AGS; type: cell-based; conditions: read-out: IC50 (μM) in gastric cancer cells, AGS
Experimental: as §1
(§3) Anti-tumor dose-effect relationship curves of the cordycepin and 40 compounds prepared in gastric cancer cell lines AGS and BGC-823 were analyzed by an MTT experimental method.

[6] = test system: gastric cancer cell line BGC-823; test: MTT proliferation, gastric cancer cell line BGC-823; type: cell-based; conditions: read-out: IC50 (μM) in gastric cancer cells, BGC-823
Experimental: as §1, §3

[7] = test system: B16-F10 melanoma cells; test: Mouse transplanted melanoma model; type: in vivo, C57BL/6j nude mice; conditions: B16-F10 transplanted mice; for tumor volume: intragastric 500 ug/time/animal every other day, 24 days, blank 1760 mm^3
Experimental: The feeding of the mouse model in the drug evaluation follows that: mice are fed and treated in a laminar flow cabinet, with 5 nude mice in each cage, drinking water and feedstuffs are added once every 3 days, and paddings are replaced once a week; a number of mice kept in each cage is no more than 5, the mice in separate cages are kept in groups as far as possible, and the mice should not be kept in a single cage; the animal management must conform to the relevant national standards on animal feeding management, and the behavioral needs of animals should be concerned at the same time to avoid unnecessary stress; the normal physiological and behavioral needs of animals, such as defecation, urination, constant body temperature maintenance, normal activities, posture adjustment and reproduction are met; good ventilation and dry animals are kept; the animals can access to drinking water and food at will, and supplementation, replacement and cleaning operations are easily carried out; a solid and safe environment is provided to avoid accidents of animals, such as escaping or limb trapping in a gap; the animals are avoided from being damaged by sharp edges or protrusions; and the animals are not disturbed during observation.
A mouse transplanted melanoma model was established and a drug was evaluated. 2.5×10^5 B16-F10 melanoma cells were suspended in 100 μL of PBS to be inoculated into an outer side of thigh of left lower limb of C57BL/6j nude mice. One week later, when the transplanted tumor reached about 100 mm^3, the mice were randomly divided into ten groups, with 10 mice in each group, comprising a blank control group, a cordycepin group, a compound 13 group, a compound 14 group, a compound 17 group, a compound 19 group, a compound 22 group, a compound 26 group, a compound 29 group and a compound 34 group respectively. The blank control group was intragastrically administrated with a nutritional agent such as a corn steep liquor and DMSO as a solvent control every day for 24 consecutive days, and the compound groups were intragastrically administrated with corresponding compounds (500 ug/time/animal in all cases) every other day for 24 consecutive days. […] The mice were killed after the experiment, blood and corresponding tissue samples were collected, tumor bodies were immediately photographed and weighed, and some tumor tissues were fixed in a formalin solution to be further detected. Two vertical diameters (length and width) of the transplanted tumor were measured with a caliper every two days to calculate a size of the transplanted tumor, and a tumor value was calculated according to a formula: tumor volume (mm^3)=[…].

[8] = Homo sapiens, NCI-H446, 72 h, MTT, 72 hours, H446
[9] = Homo sapiens, NCI-H1048, 72 h, MTT, 72 hours, H1048
[10] = Homo sapiens, MTT, 72 hours, BGC-823

Row | Compound | Maximum tolerance dose (MTD) in zebrafish model [4] [µM] | IC50 ([5]; MTT, 72 hours, AGS) [µM] | IC50 [6, 10] [µM] | other results
1 | CC(C)C(=O)OCOP(=O)(COC[C@@H]1CC(O)[C@H](n2cnc3c(N)ncnc32)O1)OCOC(=O)C(C)C (stereo partly shown) [Compound 5] | 525 | 72.7 | 91.5 | IC50 [1, 8]: 43.3 µM; IC50 [2, 9]: 40.9 µM; IC50 ([3]; MTT, 72 hours, H69): 53.4 µM
2 | CC(C)OC(=O)C(C)NP(=O)(COC[C@@H]1CC(O)[C@H](n2cnc3c(N)ncnc32)O1)Oc1ccccc1 (stereo partly shown) [Compound 7] | 62 |  |  | IC50 ([1]; Homo sapiens, NCI-H446, 72 h): 20.5 µM; IC50 ([2]; Homo sapiens, NCI-H1048, 72 h): 12.1 µM; IC50 ([3]; 72 h): 9.59 µM; IC50 ([5]; 72 h): 2.46 µM; IC50 ([6]; Homo sapiens, BGC-823, 72 h): 1.61 µM
3 | (5-(2-((E)-2-bromocarbonyl)-6-(isonicotinamide)-9H-purin-9-yl)-4-hydroxytetrahydrofuran-2-yl)dihydromethyl phosphate [Compound 35] | 0.025 | 69.4 |  | IC50 ([1]; MTT, 72 hours, H446): 21.4 µM; killing effect on the three lines of cells in vitro ([1]; stated in words for all three lines H1048, H446 and H69, MTT): strong killing effect; IC50 ([2]; MTT, 72 hours, H1048): 32.6 µM; IC50 ([3]; MTT, 72 hours, H69): 21.5 µM; IC50 ([6]; MTT, 72 hours, BGC-823): 71 µM
4 | Nc1ncnc2c1ncn2[C@@H]1O[C@H](COP(=O)(O)O)CC1O (stereo partly shown) [Compound 2, (5-(6-amino-9H-purine-9-yl)-4-hydroxytetrahydrofuran-2-yl)dihydromethyl phosphate] | 845 | 142 | 209 | IC50 [1, 8]: 76.8 µM; IC50 [2, 9]: 55.3 µM; IC50 ([3]; MTT, 72 hours, H69): 50.2 µM
5 | COC(=O)C(C)NP(=O)(Oc1ccccc1)OC1C[C@@H](CO)O[C@H]1n1cnc2c(NC(=O)c3ccncc3)ncnc21 (stereo partly shown) [Compound 34, methyl(((5-(hydroxymethyl)-2-(6-(isonicotinamide)-9H-purin-9-yl)tetrahydrofuran-3-yl)oxy)(phenoxy)phosphoryl)alanine salt] |  | 19.4 | 24.2 | tumor volume [7]: about 240 mm^3
6 | CC(C)OC(=O)C(C)NP(=O)(COC[C@@H]1CC(O)[C@H](n2cnc3c(N)nc(F)nc32)O1)Oc1ccccc1 (stereo partly shown) [Compound 20, isopropyl((((5-(6-amino-2-fluoro-9H-purin-9-yl)-4-hydroxytetrahydrofuran-2-yl)methoxy)methyl)(phenoxy)phosphoryl)alanine ester] | 0.12 |  |  | IC50 ([5]; 72 h): 0.94 µM; IC50 ([6]; Homo sapiens, BGC-823, 72 h): 1.37 µM
7 | [N-]=[N+]=N[C@@H]1C(O)[C@H](n2cnc3c(N)ncnc32)O[C@@H]1COP(=O)(O)O (stereo partly shown) [Compound 25, (5-(6-amino-9H-purine-9-yl)-3-azide-4-hydroxytetrahydrofuran-2-yl)dihydromethyl phosphate] | 12 | 47.6 | 58.5 | 
8 | CC(C)(C)C(=O)OCOP(=O)(COC[C@]1(N=[N+]=[N-])CC(O)[C@H](n2cnc3c(N)ncnc32)O1)OCOC(=O)C(C)(C)C (stereo partly shown) [Compound 37] | 0.17 | 64.2 | 56.1 | 
9 | NC1=CS(=O)(=O)OC12C[C@@H](COP(=O)(O)O)O[C@H]2n1cnc2c(N)ncnc21 (stereo partly shown) [Compound 9, (4-amino-6-(6-amino-9H-purin-9-yl)-2,2-dioxide-1,7-dioxane-2-thiaspiro[4.4]non-3-ene-8-yl)dihydromethyl phosphate] | 14 | 0.46 | 1.24 | 
10 | O=C(Nc1ncnc2c1ncn2[C@@H]1O[C@H](CO)CC1O)C1CCCC1 (stereo partly shown) [Compound 11] | 75 | 13 | 10.3 | 
11 | CC(C)OC(=O)C(C)NP(=O)(COC[C@H]1O[C@@H](n2cnc3c(N)ncnc32)C(O)[C@H]1N=[N+]=[N-])Oc1ccccc1 (stereo partly shown) [Compound 27, isopropyl((((5-(6-amino-9H-purine-9-yl)-3-azide-4-hydroxytetrahydrofuran-2-yl)methoxy)methyl)(phenoxy)phosphoryl)alanine ester] |  |  |  | IC50 ([5]; 72 h): 8.42 µM; IC50 ([6]; Homo sapiens, BGC-823, 72 h): 10.2 µM; inhibition of melanoma ([7]; same method as Embodiment 46): the Same Inhibition Effect as a Compound 26
12 | CC(C)(C)C(=O)OCOP(=O)(COC[C@@H]1CC(O)[C@H](n2cnc3c(N)nc(S)nc32)O1)OCOC(=O)C(C)(C)C (stereo partly shown) [Compound 19] |  | 0.46 | 0.76 | tumor volume [7]: about 240 mm^3
13 | Nc1nc(F)nc2c1ncn2[C@@H]1O[C@H](COP(=O)(O)O)CC1O (stereo partly shown) [Compound 13, (5-(6-amino-2-fluoro-9H-purine-9-yl)-4-hydroxytetrahydrofuran-2-yl)dihydromethyl phosphate] | 0.05 | 32.5 | 36.8 | 
14 | COC(=O)C(NP(=O)(OC[C@@H]1CC(O)[C@H](n2cnc3c(N)ncnc32)O1)Oc1ccccc1)C(C)C (stereo partly shown) [Compound 6] | 384 | 66.8 | 73.2 | 
